From ChEMBL document CHEMBL6092221, “Discovery of a Novel Macrocyclic Noncovalent CDK7 Inhibitor for Cancer Therapy” (J Med Chem, 2024)
Converted amounts (≈) assume the structure as drawn.

Experiments:
[1] = Cmax in Sprague-Dawley rat at 30 mg/kg, po; format: ADME, organism-based; conditions: in vivo
[2] = Half life in mouse at 1 mg/kg, iv; format: ADME, organism-based; conditions: in vivo
[3] = Cmax in Sprague-Dawley rat at 100 mg/kg, po; format: ADME, organism-based; conditions: in vivo
[4] = test system: OVCAR-3; assay: Antitumor activity against human OVCAR-3 cells xenografted in female Balb/c nude mouse assessed as tumor growth inhibition at 20 mg/kg, po administered once daily and measured on day 22; format: functional; conditions: OVCAR-3, 528 h, time 22 day, read-out: TGI
[5] = Cmax in human HCC70 cells xenografted in female nu/nu mouse plasma at 3 mg/kg, po administered once daily; format: ADME, organism-based
[6] = Drug concentration in rat plasma at 5 mg/kg, po measured after 0.5 hrs; format: ADME, organism-based
[7] = target: Serine/threonine-protein kinase D2 (Homo sapiens, UniProt Q9BZL6); assay: Inhibition of PRKD2 (unknown origin)
Chain of Serine/threonine-protein kinase D2 (Q9BZL6 whole entry): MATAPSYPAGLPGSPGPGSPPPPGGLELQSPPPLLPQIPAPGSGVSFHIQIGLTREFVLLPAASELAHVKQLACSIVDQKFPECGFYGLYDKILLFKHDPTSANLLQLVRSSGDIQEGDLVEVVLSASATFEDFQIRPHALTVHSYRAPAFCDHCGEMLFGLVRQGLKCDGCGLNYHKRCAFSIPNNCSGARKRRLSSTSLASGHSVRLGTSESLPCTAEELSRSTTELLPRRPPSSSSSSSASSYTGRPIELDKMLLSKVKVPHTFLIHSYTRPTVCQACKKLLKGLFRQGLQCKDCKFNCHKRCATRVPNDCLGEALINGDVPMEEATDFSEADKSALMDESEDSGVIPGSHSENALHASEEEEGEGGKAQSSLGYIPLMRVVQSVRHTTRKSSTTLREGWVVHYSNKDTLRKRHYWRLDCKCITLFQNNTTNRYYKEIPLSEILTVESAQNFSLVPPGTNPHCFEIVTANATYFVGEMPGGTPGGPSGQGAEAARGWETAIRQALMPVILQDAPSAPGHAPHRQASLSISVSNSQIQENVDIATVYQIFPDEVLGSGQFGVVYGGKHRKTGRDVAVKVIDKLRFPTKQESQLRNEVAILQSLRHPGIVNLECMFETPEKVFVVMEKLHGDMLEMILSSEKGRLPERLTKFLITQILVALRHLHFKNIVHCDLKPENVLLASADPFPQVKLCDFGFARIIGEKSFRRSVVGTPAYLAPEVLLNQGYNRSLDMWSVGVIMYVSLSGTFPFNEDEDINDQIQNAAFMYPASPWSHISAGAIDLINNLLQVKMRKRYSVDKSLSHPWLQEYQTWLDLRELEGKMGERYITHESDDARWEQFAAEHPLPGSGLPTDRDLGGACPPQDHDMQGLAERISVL

[8] = Half life in dog at 2 mg/kg, po; format: ADME, organism-based, Canis lupus familiaris; conditions: in vivo
[9] = Volume of distribution at steady state in dog at 0.2 mg/kg, iv; format: ADME, organism-based, Canis lupus familiaris; conditions: in vivo, read-out: Vdss
[10] = AUC (0 to t) in human OVCAR-3 cells xenografted in female Balb/c nude mouse plasma at 5 mg/kg, po administered once daily; format: ADME, organism-based
[11] = target: Mitogen-activated protein kinase 15 (Homo sapiens) (UniProt Q8TD08); assay: Inhibition of Erk8 (unknown origin) at 200 nM relative to control; values are per cent of control
Chain of Mitogen-activated protein kinase 15 (Homo sapiens) (Q8TD08 whole entry): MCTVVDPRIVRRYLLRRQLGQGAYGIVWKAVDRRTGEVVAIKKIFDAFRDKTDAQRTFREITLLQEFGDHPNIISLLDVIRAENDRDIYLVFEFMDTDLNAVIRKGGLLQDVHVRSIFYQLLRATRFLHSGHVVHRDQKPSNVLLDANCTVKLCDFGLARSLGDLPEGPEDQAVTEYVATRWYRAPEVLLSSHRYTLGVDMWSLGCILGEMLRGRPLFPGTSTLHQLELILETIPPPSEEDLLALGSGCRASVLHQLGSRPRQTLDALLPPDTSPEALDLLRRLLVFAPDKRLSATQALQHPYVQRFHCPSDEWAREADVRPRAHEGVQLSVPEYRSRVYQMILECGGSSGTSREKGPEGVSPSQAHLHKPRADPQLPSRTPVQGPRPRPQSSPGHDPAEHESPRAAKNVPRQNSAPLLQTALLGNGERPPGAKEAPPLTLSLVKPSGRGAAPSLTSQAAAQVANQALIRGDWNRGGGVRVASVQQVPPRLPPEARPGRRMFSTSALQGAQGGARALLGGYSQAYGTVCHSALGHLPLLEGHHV

[12] = Solubility of compound at pH 7.4; format: physicochemical; conditions: buffer
[13] = AUC(0 to t) in mouse at 1 mg/kg, iv; format: ADME, organism-based; conditions: in vivo
[14] = target: Cyclin-Y/Cyclin-dependent kinase 16 (Homo sapiens, UniProt Q00536); assay: Inhibition of CDK16/CyclinY (unknown origin); format: protein-complex assay
Chain of Cyclin-Y/Cyclin-dependent kinase 16 (Q00536 whole entry): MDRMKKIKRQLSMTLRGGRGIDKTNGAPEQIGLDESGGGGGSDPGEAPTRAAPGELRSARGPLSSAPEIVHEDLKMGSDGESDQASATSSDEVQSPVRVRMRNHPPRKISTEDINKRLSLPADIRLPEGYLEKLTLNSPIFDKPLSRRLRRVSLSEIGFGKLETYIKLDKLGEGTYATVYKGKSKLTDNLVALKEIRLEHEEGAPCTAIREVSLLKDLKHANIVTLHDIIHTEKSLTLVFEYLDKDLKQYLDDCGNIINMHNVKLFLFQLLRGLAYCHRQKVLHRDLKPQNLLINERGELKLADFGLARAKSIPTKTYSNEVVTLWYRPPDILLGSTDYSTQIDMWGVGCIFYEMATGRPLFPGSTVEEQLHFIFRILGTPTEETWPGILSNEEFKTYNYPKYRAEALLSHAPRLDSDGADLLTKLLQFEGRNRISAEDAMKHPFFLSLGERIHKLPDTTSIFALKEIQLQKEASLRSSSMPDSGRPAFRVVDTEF
Chain of Cyclin-Y/Cyclin-dependent kinase 16 (Q8ND76 whole entry, further chain): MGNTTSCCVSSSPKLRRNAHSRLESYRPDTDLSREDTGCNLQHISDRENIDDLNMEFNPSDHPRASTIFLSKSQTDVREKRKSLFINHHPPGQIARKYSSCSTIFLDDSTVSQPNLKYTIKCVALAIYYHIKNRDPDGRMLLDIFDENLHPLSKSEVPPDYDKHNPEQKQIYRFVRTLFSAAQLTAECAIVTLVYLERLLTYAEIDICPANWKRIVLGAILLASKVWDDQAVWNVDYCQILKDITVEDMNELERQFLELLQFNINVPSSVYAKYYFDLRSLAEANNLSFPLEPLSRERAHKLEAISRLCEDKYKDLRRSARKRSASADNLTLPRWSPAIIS

[15] = target: Serine/threonine-protein kinase D1 (Homo sapiens) (UniProt Q15139); assay: Inhibition of PRKD1 (unknown origin) at 200 nM relative to control; values are per cent of control
Chain of Serine/threonine-protein kinase D1 (Homo sapiens) (Q15139 whole entry): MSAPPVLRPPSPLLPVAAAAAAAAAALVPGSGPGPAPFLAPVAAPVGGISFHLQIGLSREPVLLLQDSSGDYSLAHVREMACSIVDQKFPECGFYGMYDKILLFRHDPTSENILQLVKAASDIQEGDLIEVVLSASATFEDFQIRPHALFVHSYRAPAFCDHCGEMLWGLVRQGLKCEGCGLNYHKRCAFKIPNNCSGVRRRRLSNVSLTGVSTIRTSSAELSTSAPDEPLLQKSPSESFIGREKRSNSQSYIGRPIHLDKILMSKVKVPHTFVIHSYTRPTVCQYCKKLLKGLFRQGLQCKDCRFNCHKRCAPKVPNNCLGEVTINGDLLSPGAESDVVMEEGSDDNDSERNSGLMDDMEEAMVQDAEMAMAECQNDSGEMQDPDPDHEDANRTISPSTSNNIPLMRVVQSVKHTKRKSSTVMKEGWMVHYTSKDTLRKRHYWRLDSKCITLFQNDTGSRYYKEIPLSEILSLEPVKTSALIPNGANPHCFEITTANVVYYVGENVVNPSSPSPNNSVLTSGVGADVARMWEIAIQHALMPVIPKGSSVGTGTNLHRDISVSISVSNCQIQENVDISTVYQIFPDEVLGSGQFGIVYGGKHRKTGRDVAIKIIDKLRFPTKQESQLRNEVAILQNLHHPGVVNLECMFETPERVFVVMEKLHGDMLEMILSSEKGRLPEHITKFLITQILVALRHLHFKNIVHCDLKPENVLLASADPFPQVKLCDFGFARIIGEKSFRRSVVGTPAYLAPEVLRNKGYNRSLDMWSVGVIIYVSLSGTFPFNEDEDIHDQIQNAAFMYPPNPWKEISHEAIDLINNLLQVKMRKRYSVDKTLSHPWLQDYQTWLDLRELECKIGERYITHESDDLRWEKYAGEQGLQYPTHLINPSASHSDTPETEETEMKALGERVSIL

[16] = test system: HCC70; assay: Antitumor activity against human HCC70 cells xenografted in female nu/nu mouse assessed as tumor growth inhibition at 3 mg/kg, po administered once daily and measured for 4 weeks; format: functional; conditions: HCC70, 672 h, read-out: TGI
[17] = target: Homeodomain-interacting protein kinase 4 (Homo sapiens, UniProt Q8NE63); assay: Inhibition of HIPK4 (unknown origin)
Chain of Homeodomain-interacting protein kinase 4 (Q8NE63 whole entry): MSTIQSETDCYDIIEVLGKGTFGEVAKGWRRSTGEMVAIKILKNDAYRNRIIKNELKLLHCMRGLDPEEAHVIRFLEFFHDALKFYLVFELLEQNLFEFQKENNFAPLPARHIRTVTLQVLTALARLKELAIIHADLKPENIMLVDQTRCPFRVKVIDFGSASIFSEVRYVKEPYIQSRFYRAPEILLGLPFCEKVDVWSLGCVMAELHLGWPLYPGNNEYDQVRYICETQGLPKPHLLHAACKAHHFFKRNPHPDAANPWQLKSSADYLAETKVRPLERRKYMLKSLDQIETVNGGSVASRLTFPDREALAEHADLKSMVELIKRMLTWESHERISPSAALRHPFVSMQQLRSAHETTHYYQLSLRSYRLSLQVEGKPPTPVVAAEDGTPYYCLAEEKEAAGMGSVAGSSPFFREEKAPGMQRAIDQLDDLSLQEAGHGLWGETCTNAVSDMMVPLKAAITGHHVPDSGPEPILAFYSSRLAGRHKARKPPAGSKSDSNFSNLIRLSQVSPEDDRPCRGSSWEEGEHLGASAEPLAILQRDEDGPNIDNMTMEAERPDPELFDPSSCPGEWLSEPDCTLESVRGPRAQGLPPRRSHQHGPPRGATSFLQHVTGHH

[18] = AUC(0 to 24 hrs) in Sprague-Dawley rat at 30 mg/kg, po; format: ADME, organism-based; conditions: in vivo
[19] = AUC(0 to 24 hrs) in Sprague-Dawley rat at 100 mg/kg, po; format: ADME, organism-based; conditions: in vivo
[20] = test system: Mus musculus; assay: In vivo inhibition of CDK2 phosphorylation in human HCC70 cells xenografted in female Balb/c nude mouse administered once daily for 7 days; format: functional, organism-based; conditions: dose 2-10 mg/kg, time 7.0 day
[21] = AUC(0 to t) in dog at 0.2 mg/kg, iv; format: ADME, organism-based, Canis lupus familiaris; conditions: in vivo
[22] = AUC(0 to t) in dog at 2 mg/kg, po; format: ADME, organism-based, Canis lupus familiaris; conditions: in vivo
[23] = Oral bioavailability in mouse at 5 mg/kg; format: ADME, organism-based; conditions: in vivo
[24] = Half life in Sprague-Dawley rat at 100 mg/kg, po; format: ADME, organism-based; conditions: in vivo
[25] = AUC (0 to t) in human OVCAR-3 cells xenografted in female Balb/c nude mouse plasma at 20 mg/kg, po administered once daily; format: ADME, organism-based
[26] = target: Cyclin-dependent kinase 7 (Homo sapiens) (UniProt P50613); assay: Inhibition of CDK7 (unknown origin) at 200 nM relative to control; values are per cent of control
Chain of Cyclin-dependent kinase 7 (Homo sapiens) (P50613 whole entry): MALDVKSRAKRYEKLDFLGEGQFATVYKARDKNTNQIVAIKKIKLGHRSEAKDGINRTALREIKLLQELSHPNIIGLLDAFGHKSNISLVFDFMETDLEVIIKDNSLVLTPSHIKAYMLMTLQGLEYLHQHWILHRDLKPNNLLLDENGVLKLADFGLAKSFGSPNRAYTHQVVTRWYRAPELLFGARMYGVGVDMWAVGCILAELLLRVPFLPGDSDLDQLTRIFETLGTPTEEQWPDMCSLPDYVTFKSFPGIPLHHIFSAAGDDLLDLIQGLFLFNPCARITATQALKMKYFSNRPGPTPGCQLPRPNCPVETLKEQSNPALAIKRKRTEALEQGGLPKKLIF

[27] = Cmax in human OVCAR-3 cells xenografted in female Balb/c nude mouse plasma at 2 mg/kg, po administered once daily; format: ADME, organism-based
[28] = Half life in rat at 5 mg/kg, po; format: ADME, organism-based; conditions: in vivo
[29] = target: Cyclin-dependent kinase 14/Cyclin-Y (Homo sapiens) (UniProt O94921+Q8ND76); assay: Inhibition of CDK14/Cyclin Y (unknown origin) at 200 nM relative to control; values are per cent of control
[30] = Half life in human HCC70 cells xenografted in female nu/nu mouse plasma at 1 mg/kg, po administered once daily; format: ADME, organism-based
[31] = test system: OVCAR-3; assay: Antitumor activity against human OVCAR-3 cells xenografted in female Balb/c nude mouse assessed as tumor growth inhibition at 5 mg/kg, po administered once daily and measured on day 22; format: functional; conditions: OVCAR-3, 528 h, time 22 day, read-out: TGI
[32] = Half life in human HCC70 cells xenografted in female nu/nu mouse plasma at 3 mg/kg, po administered once daily; format: ADME, organism-based
[33] = target: Mitogen-activated protein kinase 7 (Homo sapiens, UniProt Q13164); assay: Inhibition of Erk5 (unknown origin) at 200 nM relative to control; values are per cent of control
[34] = target: CDK4/Cyclin D3 (Homo sapiens) (UniProt P11802+P30281); assay: Inhibition of CDK4/Cyclin D3 (unknown origin) at 200 nM relative to control; values are per cent of control
[35] = target: Cytochrome P450 2D6 (Homo sapiens, UniProt P10635); assay: Inhibition of CYP2D6 (unknown origin); format: ADME
Chain of Cytochrome P450 2D6 (P10635 whole entry): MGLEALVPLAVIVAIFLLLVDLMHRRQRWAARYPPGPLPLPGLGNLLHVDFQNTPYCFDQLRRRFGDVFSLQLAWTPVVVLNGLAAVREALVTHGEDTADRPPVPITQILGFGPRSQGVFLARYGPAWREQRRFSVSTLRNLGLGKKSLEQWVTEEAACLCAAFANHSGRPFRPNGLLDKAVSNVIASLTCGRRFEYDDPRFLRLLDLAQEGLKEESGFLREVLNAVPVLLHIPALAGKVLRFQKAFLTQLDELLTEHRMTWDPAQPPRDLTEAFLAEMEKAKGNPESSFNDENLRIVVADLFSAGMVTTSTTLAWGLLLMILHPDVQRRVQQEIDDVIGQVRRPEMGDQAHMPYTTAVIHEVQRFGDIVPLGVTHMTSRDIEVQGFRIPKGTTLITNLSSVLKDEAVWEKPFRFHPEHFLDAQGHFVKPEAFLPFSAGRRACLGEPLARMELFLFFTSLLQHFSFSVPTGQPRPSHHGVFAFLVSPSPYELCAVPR

[36] = target: CDK18/Cyclin Y (Homo sapiens, UniProt Q07002+Q8ND76); assay: Inhibition of CDK18/Cyclin Y (unknown origin) at 200 nM relative to control; values are per cent of control
[37] = Permeability in human Caco-2 cells; format: ADME, cell-based; conditions: read-out: permeability
[38] = Cmax in human HCC70 cells xenografted in female nu/nu mouse plasma at 1 mg/kg, po administered once daily; format: ADME, organism-based
[39] = Drug concentration in rat small intestine at 5 mg/kg, po measured after 8 hrs; format: ADME, organism-based; conditions: read-out: Ct
[40] = AUC(0 to t) in female Balb/c nude mouse at 5 mg/kg, po; format: ADME, organism-based; conditions: in vivo
[41] = Half life in human OVCAR-3 cells xenografted in female Balb/c nude mouse plasma at 2 mg/kg, po administered once daily; format: ADME, organism-based
[42] = Drug concentration in rat plasma at 5 mg/kg, po measured after 2 hrs; format: ADME, organism-based
[43] = Toxicity in female nu/nu mouse xenografted with human HCC70 cells assessed as body weight loss at 1 to 10 mg/kg, po administered once daily and measured for 4 weeks; format: organism-based; conditions: in vivo, 672 h, dose 1-10 mg/kg
[44] = Plasma protein binding in rat assessed as unbound fraction; format: ADME, cell-free
[45] = Half life in mouse at 5 mg/kg, po; format: ADME, organism-based; conditions: in vivo
[46] = Volume of distribution at steady state in rat at 1 mg/kg, iv; format: ADME, organism-based; conditions: in vivo, read-out: Vdss
[47] = AUC(0 to t) in human HCC70 cells xenografted in female nu/nu mouse plasma at 3 mg/kg, po administered once daily; format: ADME, organism-based

Cmax [1]: 1270 ng/mL | half-life [2]: 2 h | Cmax [3]: 3830 ng/mL | concentration at 0.5 h [6]: 33.9 ng/mL | IC50 [7]: 0.0452 µM | half-life [8]: 4.4 h | Vd [9]: 0.24 L/kg | AUC(0-t) [10]: 694 ng·h/mL | solubility [12]: 917 µg/mL (≈ 1530 µM) | AUC(0-t) [13]: 315 ng·h/mL | IC50 [14]: 0.0028 µM | residual activity [15]: 19% | IC50 [17]: 0.055 µM | AUC(0-t) [18]: 3960 ng·h/mL | AUC(0-t) [19]: 14200 ng·h/mL | AUC(0-t) [21]: 3070 ng·h/mL | AUC(0-t) [22]: 44600 ng·h/mL | bioavailability [23]: 78.7% | half-life [24]: 5.5 h | AUC(0-t) [25]: 3940 ng·h/mL | residual activity [26]: 0.35% | Cmax [27]: 214 ng/mL | half-life [28]: 1.4 h | residual activity [29]: 1.3% | residual activity [33]: 5.6% | residual activity [34]: 17% | IC50 [35]: 7 µM | residual activity [36]: 2.9% | Papp [37]: 3.69 ×10⁻⁶ cm/s | concentration at 8 h [39]: 67 ng/g | AUC(0-t) [40]: 938 ng·h/mL | half-life [41]: 1.7 h | concentration at 2 h [42]: 68.8 ng/mL | fraction unbound [44]: 0.044 | half-life [45]: 4.3 h | Vd [46]: 2.6 L/kg
SMILES: CN1CC(F)(F)CCN(C)[C@H]2CC[C@@H](C2)Nc2ncc(C(F)(F)F)c(n2)-c2c[nH]c3c(P(C)(C)=O)c(ccc23)C1=O
inhibition in vivo at 20 mg/kg [4]: 111% | Cmax [5]: 130 ng/mL | residual activity [11]: 0.85% | inhibition in vivo at 3 mg/kg [16]: 120% | Activity [20]: Dose-dependent-effect | half-life [30]: 2 h | inhibition in vivo at 5 mg/kg [31]: 111% | half-life [32]: 1.6 h | Cmax [38]: 75 ng/mL | Activity [43]: Non-toxic | AUC(0-t) [47]: 203 ng·h/mL
